Entries after “also recorded” stand apart in the source; their conditions may differ. Read-outs that look alike come from different tables or passages of the source.
Tests used:
[1] = test system: ginsenoside glycosidase MT619; assay: Ginsenoside conversion ability of MT619 (TLC); type: biochemical, Microbacterium testaceum; details: 2.0 mg/ml MT619, 2.0 mg/ml substrate, 37° C., 1.5 hr
Method: In order to analyze the specificity and selectivity of the enzyme for the hydrolysis of a sugar attached at the C-6 position of ginsenoside, ginsenoside Re, Rg1 and Rg2 were used as the substrates.
2.0 mg/ml of MT619 in 50 mM sodium phosphate buffer (pH 7.0) was reacted with each 2.0 mg/ml of the three substrates in 50 mM sodium phosphate (pH 6.0) at an equal volume at 37° C. In order to measure cleavage activity of MT619, the samples were collected at 1.5 hr after reaction, and an equal volume of water-saturated butanol was added to stop the reaction. The n-butanol fraction was evaporated to dryness, and residual material was dissolved in CH3OH and then examined by thin layer chromatography (TLC), and the results are given in FIG. 4.

[2] = test system: ginsenoside glycosidase MT619; assay: Effects of metals and chemical reagents on MT619 activity (residual activity, pNPG substrate); type: biochemical, Microbacterium testaceum
[3] = test system: ginsenoside glycosidase MT619; assay: Substrate specificity of MT619 with chromogenic ONP and PNP substrates; type: biochemical, Microbacterium testaceum; details: for substrate specificity of MT619: 2.0 mM substrate, 37° C.; for Relative activity (%) MT619: final substrate concentration 2.0 mM, 37° C. for 5 minutes, relative to enzymatic activity for pNP-β-D-glucopyranoside
Method: In order to analyze substrate specificity of […], 2.0 mM chromogenic O-nitrophenyl (ONP) and p-nitrophenyl (PNP) were used as substrates, and measured at 37° C. for 5 minutes. 1 activity unit was defined as the release of 1 μmol of o-nitrophenol or p-nitrophenol per minute. Substrates used for analysis were pNP-α-L-arabinofuranoside, pNP-β-L-arabinopyranoside, pNP-α-L-D-fucopyranoside, pNP-α-L-rhamnopyranoside, pNP-α-D-glucopyranoside, pNP-α-D-mannopyranoside, pNP-β-D-galactopyranoside, oNP-β-D-glucopyranoside, oNP-β-D-fucopyranoside, pNP-β-D-xylopyranoside, pNP-β-L-arabinofuranoside, oNP-β-D-fucopyranoside, oNP-α-D-galactopyranoside, and pNP-β-D-glucopyranoside, which were purchased from Sigma.

[4] = type: biochemical; details: 2.0 mM pNPGlc, 50 mM potassium phosphate buffer, 10 minutes, 4 to 65° C.
Method: In order to measure the effect of temperature on the enzymatic activity of MT619, 2.0 mM pNPGlc (p-nitrophenyl-3-Dglucopyranoside; Sigma) was used to analyze the temperature-dependent activity in the 50 mM potassium phosphate buffer at the optimum pH for 10 minutes while varying the temperature between 4 to 65° C.
Further, in order to measure the effect of temperature on the enzymatic stability of MT619, the equivalent amount of enzyme was incubated in 50 mM potassium phosphate buffer within the same temperature range for 30 minutes. In detail, the sample was cooled in ice for 10 minutes, and temperature stability analysis was performed by measuring the residual activity according to a standard analytical procedure, and the results are given in FIG. 3.

[5] = F1 production ability from ginsenoside Rg1, MT619 compared with BgpA; type: biochemical
Excerpt: In order to evaluate production ability of MT619 to produce F1 by using Rg1 as a substrate, its F1 production ability was compared with that of ginsenoside glucosidase derived from […].
BgpA derived from Terrabacter ginsenosidimutans, which is known to produce F1 by using ginsenoside Rg1 as a substrate, was used as a comparative control group.

[6] = Effect of pH on enzymatic activity and stability of MT619; type: biochemical
Method: In order to measure the effect of pH on the enzymatic activity of MT619, 2.0 mM pNPGlc (p-nitrophenyl-D-glucopyranoside; Sigma) was used as a substrate, and pH was adjusted using the following buffer (50 mM). pH range of 2 to 10: KCl—HCl (pH 2), glycine-HCl (pH 3), sodium acetate (pH 4 and pH 5), sodium phosphate (pH 6 and pH 7), Tris-HCl (pH 8 and pH 9) and glycine-sodium hydroxide (pH 10).
Further, the effect of pH on the enzymatic stability was measured. Enzyme was incubated in each of the above mentioned buffers at 4° C. for 24 hours, and then pNPGlc was analyzed in 50 mM potassium buffer to measure the enzymatic stability according to pH change. Residual activity was analyzed according to a standard analytical procedure, and the results are given in FIG. 2 as an activity percentage obtained at the optimum pH.

[7] = 10 mM reagent, 37° C. for 30 minutes, pNPG substrate, residual activity as percentage of activity without the compounds

CC(C)=CCC[C@](C)(O[C@@H]1O[C@H](CO)[C@@H](O)[C@H](O)[C@H]1O)[C@H]1CC[C@]2(C)[C@@H]1[C@H](O)C[C@@H]1[C@@]3(C)CC[C@H](O)C(C)(C)[C@@H]3[C@@H](O[C@@H]3O[C@H](CO)[C@@H](O)[C@H](O)[C@H]3O)C[C@]12C [Rg1, ginsenoside Rg1]
conversion of ginsenoside by MT619 (TLC, words) [1]: conversion of ginsenoside Rg1 into F1 was confirmed; also recorded: converted into ginsenoside F1

O=C(O)CN(CCN(CC(=O)O)CC(=O)O)CC(=O)O [EDTA]
Relative activity (%) [2]: 80.9 ± 2.3%

[Cl][Cu][Cl] [CuCl2]
effect of ions on enzymatic activity of MT619 ([2]; 10 mM, 37° C., 30 minutes): strongly inhibited

CCCCCCCCCCCCOS(=O)(=O)[O-].[Na+] [SDS]
Relative activity (%) [2, 7]: 80.6 ± 6.1%

[Cl-].[Cl-].[Mg+2] [MgCl2]
Relative activity (%) [2, 7]: 112.7 ± 4.1%

O=[N+]([O-])c1ccccc1O[C@@H]1O[C@H](CO)[C@@H](O)[C@H](O)[C@H]1O [oNP-β-glucopyranoside, oNP-β-D-glucopyranoside]
substrate specificity of MT619 [3]: showed substrate specificity | Relative activity (%) MT619 [3]: 28.7 ± 2.1%

[Ca+2].[Cl-].[Cl-] [CaCl2]
Relative activity (%) [2, 7]: 132.8 ± 2.4% | effect of ions on enzymatic activity of MT619 ([2]; 10 mM, 37° C., 30 minutes, listed as Ca^2+): did not greatly increase; also recorded: not greatly increased

[Cl-].[Cl-].[Co+2] [CoCl2]
Relative activity (%) [2]: 17.9 ± 0.5% | effect of ions on enzymatic activity of MT619 [2]: strongly inhibited

CC(C)=CCC[C@](C)(O[C@@H]1O[C@H](CO)[C@@H](O)[C@H](O)[C@H]1O)[C@H]1CC[C@]2(C)[C@@H]1[C@H](O)C[C@@H]1[C@@]3(C)CC[C@H](O)C(C)(C)[C@@H]3[C@@H](O[C@@H]3O[C@H](CO)[C@@H](O)[C@H](O)[C@H]3O[C@@H]3O[C@@H](C)[C@H](O)[C@@H](O)[C@H]3O)C[C@]12C [Re, ginsenoside Re]
conversion of ginsenoside by MT619 (TLC, words) [1]: converted into ginsenoside F1

O=[N+]([O-])c1ccc(O[C@@H]2O[C@H](CO)[C@@H](O)[C@H](O)[C@H]2O)cc1 [pNP-β-D-glucopyranoside, p-nitrophenyl-β-D-glucopyranoside]
substrate specificity of MT619 [3]: highest substrate specificity | Relative activity (%) MT619 [3]: 100 ± 1.2%

[Cl-].[K+] [KCl]
Relative activity (%) [2, 7]: 95.3 ± 1.1% | effect of ions on enzymatic activity of MT619 ([2]; 10 mM, 37° C., 30 minutes, listed as K^+): did not greatly increase; also recorded: not greatly increased

[Cl][Hg][Cl] [HgCl2]
effect of ions on enzymatic activity of MT619 ([2]; 10 mM, 37° C., 30 minutes): strongly inhibited

OCCS [Beta-Mercaptoethanol]
Relative activity (%) [2, 7]: 94 ± 2%

[Cl][Mn][Cl] [MnCl2]
Relative activity (%) [2, 7]: 59.9 ± 2.6%

O[C@H](CS)[C@H](O)CS (racemic) [DTT, dithiothreitol]
Relative activity (%) [2, 7]: 79.6 ± 1.6%

[Cl-].[Na+] [Nacl, NaCl]
Relative activity (%) [2, 7]: 128.1 ± 3.7% | effect of ions on enzymatic activity of MT619 ([2]; 10 mM, 37° C., 30 minutes, listed as Na^+): did not greatly increase; also recorded: not greatly increased

[Cl-].[Cl-].[Zn+2] [ZnCl2]
effect of ions on enzymatic activity of MT619 ([2]; 10 mM, 37° C., 30 minutes): strongly inhibited

B1: MT619: ginsenoside glycosidase of SEQ ID NO: 1 screened from Microbacterium testaceum, 619 amino acids (protein, listed as Microbacterium testaceum)
chain: MTHARFLTAPDGTRFRDLNGNGVMDPYENPALSVEERTDDLVSRLSLEEKVGLMFQTVIEVGDEGELLEAPGKISKSPTTTVVVGKHMNHFNVHAIRTARQAATWNNNLQALAETTPHGIPVTISTDPRHAFVENTGVAFSAGPFSQWPEGLGLAALDDVDTVREFAEVARREYVAVGIRAALHPQIDLATEPRWGRQAQTLGQDAARVTEFTAAYLQGFQGDELGPDSVACTTKHFPGGGPQLDGEDAHFPYGREQVYPGGMFDYHLEPFREAIRCGTAGMMPYYGMPVGLEVDGLPIEEVGFGYNRQIITGLLREQLGYDGVVVTDWELVNDNHVGDQVLPARAWGVEHLSAVERMEKILDAGSDQFGGEECVEMLVDLVRAGRVSEERIDESVRRLLRVKFQLGLFDDPYVDVDEAERIVGNAEFRALGERAQAHSLTVLVNEGDVLPLRPAGAVYIEGFRPDDVAELGRVVTDPAEADLAIVRIGAPFDPRDDLFLEAWFHQGSLEFAPGLVYRLQQIAASCPLILVVNLDRPAILTPFVGHAAAIVADYGSSSAAVLDALTGRVPPRGRLPIEIPRSMDAVRSSREDVPSDTGDPVFPVHHGVELKVSTGAQRG
temperature of highest activity (optimum temperature) [4]: 45 °C | time of highest F1 production ability after initiation of the reaction ([5]; enzyme 0.1 mg/ml, Rg1 substrate): 2 h | F1 produced ([5]; enzyme concentration 0.1 mg/ml, Rg1 (2.0 mg/ml) as substrate): 1.3 mg | production of F1 relative to BgpA ([5]; enzyme concentration 0.1 mg/ml, Rg1 as substrate): 7 times | pH of highest activity and stability ([6]; pH 2 to 10 buffers 50 mM, stability after 4° C. for 24 hours): 7.0 | pH of highest stability ([6]; summary statement of Example 3-2): 7.0
